Test results published in ChEMBL document CHEMBL5518182, “Discovery and development of BI 1265162, an ENaC inhibitor for the treatment of cystic fibrosis” (Eur J Med Chem, 2024).
pIC50: −log10 of the molar value. Calls of active or inactive are those of the source. No cut-off for these calls is given here.

Tests used:
[1] = Inhibition of ENaC in mouse M1 cells upto 10 uM by chamber assay; type: cell-based; conditions: m1 cell
M1 cell = assay: Inhibition of ENaC-mediated water resorption in mouse M1 cells at 3 uM by radiometric dilution assay relative to control; type: cell-based
[2] = Permeability across basal to apical side in human Calu-3 cells at 0.1 to 300 uM measured upto 2 hrs by HPLC-MS/MS analysis; type: ADME, cell-based; conditions: dose 0.1-300 µM, read-out: permeability
[3] = Solubility of compound at pH 5; type: physicochemical; conditions: buffer
[4] = Lipophilicity, logD of compound at pH 7.4; type: physicochemical; conditions: buffer
Lung [5] = assay: Inhibition of lung water resorption in Wistar rat at 3 ug/kg, IT(Intratracheal) incubated for 3 hrs relative to control; type: functional
[6] = target: Acetylcholinesterase (Homo sapiens) (UniProt P22303); assay: Inhibition of AChE (unknown origin) at 10 uM relative to control
Acetylcholinesterase (Homo sapiens), sequence (P22303 whole entry): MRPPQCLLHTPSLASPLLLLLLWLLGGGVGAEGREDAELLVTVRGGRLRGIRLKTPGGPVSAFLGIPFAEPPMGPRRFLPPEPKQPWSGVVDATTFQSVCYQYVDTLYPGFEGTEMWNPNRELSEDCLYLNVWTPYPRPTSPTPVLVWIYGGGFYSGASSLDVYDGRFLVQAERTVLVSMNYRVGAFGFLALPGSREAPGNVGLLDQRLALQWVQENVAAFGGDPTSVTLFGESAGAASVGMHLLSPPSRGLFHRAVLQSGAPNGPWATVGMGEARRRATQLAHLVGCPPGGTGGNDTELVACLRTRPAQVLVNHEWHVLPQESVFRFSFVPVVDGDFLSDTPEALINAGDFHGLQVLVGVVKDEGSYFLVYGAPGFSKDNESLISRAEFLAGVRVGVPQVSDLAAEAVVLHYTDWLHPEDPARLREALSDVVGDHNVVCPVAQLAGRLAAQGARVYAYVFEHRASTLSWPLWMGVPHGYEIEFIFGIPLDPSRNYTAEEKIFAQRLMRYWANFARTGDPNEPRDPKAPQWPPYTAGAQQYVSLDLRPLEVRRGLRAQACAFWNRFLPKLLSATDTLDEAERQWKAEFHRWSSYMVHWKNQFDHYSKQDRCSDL

Lung [7] = assay: Inhibition of lung water resorption in Wistar rat at 0.3 ug/kg, IT(Intratracheal) incubated for 3 hrs relative to control; type: functional
[8] = Permeability of compound by PAMPA assay; type: ADME; conditions: read-out: permeability
[9] = Permeability across apical to basal side in human Caco-2 cells by LC-MS/MS analysis; type: ADME, cell-based; conditions: read-out: permeability
[10] = Metabolic stability in rat liver microsomes assessed as liver blood flow at 1 uM by LC-MS/MS analysis; type: ADME, Microsome; conditions: read-out: QH
[11] = Metabolic stability in human liver microsomes assessed as liver blood flow at 1 uM by LC-MS/MS analysis; type: ADME, Microsome; conditions: read-out: QH
[12] = Metabolic stability in rat hepatocytes assessed as liver blood flow at 1 uM incubated for 6 hrs by HPLC-MS/MS analysis; type: ADME, cell-based, Hepatocyte; conditions: read-out: QH
[13] = Metabolic stability in human hepatocytes assessed as liver blood flow at 1 uM incubated for 6 hrs by HPLC-MS/MS analysis; type: ADME, cell-based, Hepatocyte; conditions: read-out: QH
[14] = Clearance in Han Wistar rat assessed as liver blood flow at 0.5 umol/kg; type: ADME, tissue-based; conditions: in vivo, at 0.5 µmol/kg
[15] = MRT in Han Wistar rat; type: ADME; conditions: in vivo
[16] = Drug uptake in Han Wistar rat lung at 10 ug/kg, IT(Intratracheal) measured after 3 hrs by HPLC-TMS analysis; type: ADME, tissue-based; conditions: in vivo, inhaled_or_intranasal, 0.01 mg/kg, dose 10 µg/kg
Rattus norvegicus [17] = species: Rattus norvegicus; assay: Upregulation of serum potassium level in Han Wistar rat; type: functional, organism-based
Rattus norvegicus [18] = assay: Acute effect on Han Wistar rat model of lung fluid absorption administered intratracheally measured after 3 hrs; type: functional; conditions: route it(Intratracheal)
Rattus norvegicus [19] = assay: Upregulation of serum aldosterone level in Han Wistar rat model of lung fluid absorption at 3 ug/kg, IT(Intratracheal) measured after 3 hrs relative to control; type: functional; conditions: dose 3 µg/kg
Rattus norvegicus [20] = assay: Effect on Han Wistar rat model of lung fluid absorption at ED70 administered intratracheally measured after 20 hrs; type: functional; conditions: route it(Intratracheal)
[21] = Cytotoxicity against human U-937 cells by MTT assay; type: toxicity, cell-based
[22] = Cytotoxicity against rat hepatocytes by LDH assay; type: toxicity, cell-based, Hepatocyte
[23] = Cytotoxicity against human 16HBE14o- cells by plasma damage based analysis; type: toxicity, cell-based
Cytochrome P450 3A4 = Cytochrome P450 3A4 (Homo sapiens, UniProt P08684); assay: Inhibition of CYP3A4 in human liver microsomes using midazolam as substrate in presence of NADPH by LC-MS/MS analysis; type: ADME, Microsome
Cytochrome P450 3A4, sequence (P08684 whole entry): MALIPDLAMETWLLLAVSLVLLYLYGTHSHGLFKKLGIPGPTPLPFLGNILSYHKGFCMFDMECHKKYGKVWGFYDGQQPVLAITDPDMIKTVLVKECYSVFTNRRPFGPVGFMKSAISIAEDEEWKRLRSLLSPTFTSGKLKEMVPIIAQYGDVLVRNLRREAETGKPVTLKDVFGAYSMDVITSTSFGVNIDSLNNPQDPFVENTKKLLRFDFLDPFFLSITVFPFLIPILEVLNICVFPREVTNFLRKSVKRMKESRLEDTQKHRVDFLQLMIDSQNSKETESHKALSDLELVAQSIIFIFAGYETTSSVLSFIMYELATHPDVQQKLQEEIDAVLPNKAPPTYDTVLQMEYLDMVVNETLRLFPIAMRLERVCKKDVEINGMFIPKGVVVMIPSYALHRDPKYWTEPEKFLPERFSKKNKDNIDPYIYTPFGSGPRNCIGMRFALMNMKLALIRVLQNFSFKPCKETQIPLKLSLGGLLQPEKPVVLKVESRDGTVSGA

Cytochrome P450 2D6 = Cytochrome P450 2D6 (Homo sapiens, UniProt P10635); assay: Inhibition of CYP2D6 in human liver microsomes using dextromethorphan as substrate in presence of NADPH by LC-MS/MS analysis; type: ADME, Microsome
Cytochrome P450 2D6, sequence (P10635 whole entry): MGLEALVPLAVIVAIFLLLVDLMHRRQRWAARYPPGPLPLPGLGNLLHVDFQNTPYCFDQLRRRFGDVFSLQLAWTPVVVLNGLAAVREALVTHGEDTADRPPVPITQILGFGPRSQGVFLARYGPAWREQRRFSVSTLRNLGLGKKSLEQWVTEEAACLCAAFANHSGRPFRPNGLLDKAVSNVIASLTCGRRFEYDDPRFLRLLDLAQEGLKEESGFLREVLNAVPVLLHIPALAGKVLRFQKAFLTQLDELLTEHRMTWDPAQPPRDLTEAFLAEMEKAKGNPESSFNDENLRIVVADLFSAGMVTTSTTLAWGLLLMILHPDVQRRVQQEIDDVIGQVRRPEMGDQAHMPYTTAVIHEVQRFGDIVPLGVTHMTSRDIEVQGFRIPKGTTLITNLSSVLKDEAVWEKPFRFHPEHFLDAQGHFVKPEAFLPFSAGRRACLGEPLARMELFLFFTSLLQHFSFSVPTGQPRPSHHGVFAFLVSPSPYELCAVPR

Cytochrome P450 2C9 = Cytochrome P450 2C9 (Homo sapiens, UniProt P11712); assay: Inhibition of CYP2C9 in human liver microsomes using diclofenac as substrate in presence of NADPH by LC-MS/MS analysis; type: ADME, Microsome
Cytochrome P450 2C9, sequence (P11712 whole entry): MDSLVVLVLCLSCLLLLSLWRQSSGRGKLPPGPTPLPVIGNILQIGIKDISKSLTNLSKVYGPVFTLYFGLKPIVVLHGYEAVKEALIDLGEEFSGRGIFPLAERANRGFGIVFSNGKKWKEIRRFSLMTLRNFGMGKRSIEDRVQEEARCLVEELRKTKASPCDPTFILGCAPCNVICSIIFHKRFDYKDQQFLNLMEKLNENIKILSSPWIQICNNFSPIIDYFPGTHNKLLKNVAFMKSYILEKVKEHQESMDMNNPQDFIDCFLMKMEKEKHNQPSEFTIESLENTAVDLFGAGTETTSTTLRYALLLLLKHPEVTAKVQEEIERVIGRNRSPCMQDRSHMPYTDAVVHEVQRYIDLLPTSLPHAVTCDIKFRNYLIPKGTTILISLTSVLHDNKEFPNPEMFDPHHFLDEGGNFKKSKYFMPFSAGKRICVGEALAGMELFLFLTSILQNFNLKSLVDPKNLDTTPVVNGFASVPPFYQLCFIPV

Cytochrome P450 2C19 = Cytochrome P450 2C19 (Homo sapiens, UniProt P33261); assay: Inhibition of CYP2C19 in human liver microsomes using (S)-mephenytoin as substrate in presence of NADPH by LC-MS/MS analysis; type: ADME, Microsome
Cytochrome P450 2C19, sequence (P33261 whole entry): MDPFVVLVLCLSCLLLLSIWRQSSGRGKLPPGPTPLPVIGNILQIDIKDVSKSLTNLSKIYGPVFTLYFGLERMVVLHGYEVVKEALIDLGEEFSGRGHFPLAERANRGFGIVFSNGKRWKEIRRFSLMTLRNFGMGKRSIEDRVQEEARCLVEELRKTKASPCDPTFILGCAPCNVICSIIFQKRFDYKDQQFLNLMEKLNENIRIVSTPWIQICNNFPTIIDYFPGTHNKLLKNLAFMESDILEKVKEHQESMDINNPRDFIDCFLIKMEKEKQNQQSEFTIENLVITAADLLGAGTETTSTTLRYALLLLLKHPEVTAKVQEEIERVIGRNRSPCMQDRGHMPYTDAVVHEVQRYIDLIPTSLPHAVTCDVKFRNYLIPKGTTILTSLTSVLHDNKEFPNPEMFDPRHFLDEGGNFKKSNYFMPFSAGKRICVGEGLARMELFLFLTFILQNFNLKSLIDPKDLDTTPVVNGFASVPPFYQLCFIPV

Cytochrome P450 1A2 = target: T1, Cytochrome P450 1A2 (Homo sapiens, UniProt P05177); assay: Inhibition of CYP1A2 in human liver microsomes in presence of NADPH by LC-MS/MS analysis; type: ADME, Microsome
T1 sequence (P05177 whole entry): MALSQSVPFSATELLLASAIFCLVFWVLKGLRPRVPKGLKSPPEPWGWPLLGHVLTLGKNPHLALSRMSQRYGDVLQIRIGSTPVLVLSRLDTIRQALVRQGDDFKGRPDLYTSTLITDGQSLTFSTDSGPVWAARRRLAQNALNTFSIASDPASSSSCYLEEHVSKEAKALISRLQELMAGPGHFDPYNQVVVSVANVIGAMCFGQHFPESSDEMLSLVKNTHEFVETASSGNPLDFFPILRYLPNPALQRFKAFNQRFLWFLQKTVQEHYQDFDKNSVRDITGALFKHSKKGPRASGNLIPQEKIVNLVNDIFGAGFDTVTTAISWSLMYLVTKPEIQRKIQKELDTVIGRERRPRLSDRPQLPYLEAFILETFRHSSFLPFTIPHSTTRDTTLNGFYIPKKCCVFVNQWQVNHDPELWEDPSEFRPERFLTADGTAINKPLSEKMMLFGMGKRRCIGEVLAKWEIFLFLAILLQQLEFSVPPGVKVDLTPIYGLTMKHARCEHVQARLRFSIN

[24] = Genotoxicity in Salmonella typhimurium TA98 incubated for 48 hrs in presence of rat liver S9 fraction by Ames test; type: toxicity, subcellular; conditions: salmonella enterica subsp. enterica serovar typhimurium, s9, 48 h
[25] = Genotoxicity in Salmonella typhimurium TA100 incubated for 48 hrs in presence of rat liver S9 fraction by Ames test; type: toxicity, subcellular; conditions: salmonella enterica subsp. enterica serovar typhimurium, s9, 48 h
[26] = Genotoxicity in Salmonella typhimurium TA1535 incubated for 48 hrs in presence of rat liver S9 fraction by Ames test; type: toxicity, subcellular; conditions: salmonella enterica subsp. enterica serovar typhimurium, s9, 48 h
[27] = Genotoxicity in Salmonella typhimurium TA1537 incubated for 48 hrs in presence of rat liver S9 fraction by Ames test; type: toxicity, subcellular; conditions: salmonella enterica subsp. enterica serovar typhimurium, s9, 48 h
[28] = Genotoxicity in Escherichia coli WP2 uvrA (pKM 101) incubated for 48 hrs in presence of rat liver S9 fraction by Ames test; type: toxicity, subcellular; conditions: s9, 48 h
[29] = Drug uptake in Han Wistar rat lung at 8 ug/kg, IT(Intratracheal) measured after 3 hrs by HPLC-TMS analysis; type: ADME, tissue-based; conditions: in vivo, inhaled_or_intranasal, 0.008 mg/kg, dose 8 µg/kg
[30] = Oral bioavailability in Han Wistar rat; type: ADME, organism-based; conditions: in vivo
CFTR = CFTR (Homo sapiens, UniProt P13569); assay: Inhibition of CFTR (unknown origin) at 10 uM relative to control; type: toxicity
CaV3.1 = CaV3.1 (Homo sapiens, UniProt O43497); assay: Inhibition of CaV3.1 (unknown origin) at 10 uM relative to control; type: toxicity
CaV3.2 = CaV3.2 (Homo sapiens, UniProt O95180); assay: Inhibition of CaV3.2 (unknown origin) at 10 uM relative to control; type: toxicity
CaV3.2, sequence (O95180 whole entry): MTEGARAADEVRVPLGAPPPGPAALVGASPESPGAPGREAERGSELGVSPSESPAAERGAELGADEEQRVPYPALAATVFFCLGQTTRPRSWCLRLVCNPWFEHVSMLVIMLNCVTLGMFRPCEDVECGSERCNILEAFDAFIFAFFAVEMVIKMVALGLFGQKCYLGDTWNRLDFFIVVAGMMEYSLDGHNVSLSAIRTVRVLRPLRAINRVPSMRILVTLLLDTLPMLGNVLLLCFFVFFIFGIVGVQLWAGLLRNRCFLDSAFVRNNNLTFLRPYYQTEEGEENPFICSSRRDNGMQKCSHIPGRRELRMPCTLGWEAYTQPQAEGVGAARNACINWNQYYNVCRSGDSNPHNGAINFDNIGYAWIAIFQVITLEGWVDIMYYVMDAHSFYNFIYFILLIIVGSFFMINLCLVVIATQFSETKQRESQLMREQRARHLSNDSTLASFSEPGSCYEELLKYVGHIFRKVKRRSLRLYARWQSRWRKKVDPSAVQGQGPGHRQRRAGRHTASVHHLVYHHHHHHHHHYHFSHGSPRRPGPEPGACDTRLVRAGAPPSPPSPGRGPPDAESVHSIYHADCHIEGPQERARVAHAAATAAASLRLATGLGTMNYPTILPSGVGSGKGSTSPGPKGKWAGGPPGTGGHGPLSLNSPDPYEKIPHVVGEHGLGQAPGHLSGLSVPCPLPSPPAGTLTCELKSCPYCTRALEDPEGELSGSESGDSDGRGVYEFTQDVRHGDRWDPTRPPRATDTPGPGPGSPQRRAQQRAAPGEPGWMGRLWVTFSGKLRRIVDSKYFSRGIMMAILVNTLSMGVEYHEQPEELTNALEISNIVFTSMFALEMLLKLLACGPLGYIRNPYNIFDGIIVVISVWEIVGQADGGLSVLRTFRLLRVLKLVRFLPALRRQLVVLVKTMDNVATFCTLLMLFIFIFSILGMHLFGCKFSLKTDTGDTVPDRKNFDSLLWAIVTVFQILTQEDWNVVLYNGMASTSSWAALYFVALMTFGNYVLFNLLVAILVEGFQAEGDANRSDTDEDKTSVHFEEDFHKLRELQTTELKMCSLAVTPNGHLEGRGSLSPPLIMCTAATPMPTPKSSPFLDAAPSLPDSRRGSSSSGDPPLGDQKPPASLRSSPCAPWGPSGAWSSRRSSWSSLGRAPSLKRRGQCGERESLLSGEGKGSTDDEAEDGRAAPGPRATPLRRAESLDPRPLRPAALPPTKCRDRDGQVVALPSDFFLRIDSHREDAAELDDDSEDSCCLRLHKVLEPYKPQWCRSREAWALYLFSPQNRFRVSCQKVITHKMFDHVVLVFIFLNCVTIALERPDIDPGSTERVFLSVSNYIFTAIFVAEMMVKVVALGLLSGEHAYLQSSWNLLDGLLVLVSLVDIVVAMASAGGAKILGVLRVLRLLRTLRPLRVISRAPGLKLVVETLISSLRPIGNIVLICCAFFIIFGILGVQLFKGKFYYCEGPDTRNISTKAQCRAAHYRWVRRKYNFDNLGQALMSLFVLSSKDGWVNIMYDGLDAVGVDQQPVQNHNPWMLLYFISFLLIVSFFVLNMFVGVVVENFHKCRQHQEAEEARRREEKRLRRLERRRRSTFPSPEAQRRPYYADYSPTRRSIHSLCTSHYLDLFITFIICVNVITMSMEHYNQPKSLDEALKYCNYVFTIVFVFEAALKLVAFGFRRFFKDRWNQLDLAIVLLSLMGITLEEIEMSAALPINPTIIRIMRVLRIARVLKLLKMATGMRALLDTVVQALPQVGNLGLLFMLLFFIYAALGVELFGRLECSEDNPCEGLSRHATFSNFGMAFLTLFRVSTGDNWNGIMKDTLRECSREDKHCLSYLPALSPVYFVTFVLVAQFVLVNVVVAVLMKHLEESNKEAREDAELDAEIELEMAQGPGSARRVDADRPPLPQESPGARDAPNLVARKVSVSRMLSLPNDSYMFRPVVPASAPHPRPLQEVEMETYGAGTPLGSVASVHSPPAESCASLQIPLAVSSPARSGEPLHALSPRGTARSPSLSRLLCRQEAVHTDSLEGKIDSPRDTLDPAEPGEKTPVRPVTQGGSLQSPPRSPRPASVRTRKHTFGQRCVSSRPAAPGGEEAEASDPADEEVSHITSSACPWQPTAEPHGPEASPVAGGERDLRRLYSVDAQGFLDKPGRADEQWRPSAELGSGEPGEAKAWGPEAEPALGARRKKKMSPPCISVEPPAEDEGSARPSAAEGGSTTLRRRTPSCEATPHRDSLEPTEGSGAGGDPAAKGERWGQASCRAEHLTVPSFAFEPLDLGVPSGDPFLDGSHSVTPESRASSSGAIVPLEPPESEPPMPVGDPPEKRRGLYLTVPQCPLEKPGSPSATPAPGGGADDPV

BK channel = BK channel (Homo sapiens, UniProt Q12791); assay: Inhibition of BK channel (unknown origin) at 10 uM relative to control; type: toxicity

Structure (SMILES) | Papp B→A at 2 h, up to 300 µM [2] [×10⁻⁶ cm/s] | solubility [3] [%] | logD [4] | Papp [8] [×10⁻⁶ cm/s] | Papp A→B [9] [×10⁻⁶ cm/s] | hepatic extraction ratio at 1 µM [10] | hepatic extraction ratio at 1 µM [11] | hepatic extraction ratio at 6 h, 1 µM [12] | hepatic extraction ratio at 6 h, 1 µM [13] | QH [14] [%] | MRT [15] [min] | pIC50 [21] | pIC50 [22] | pIC50 [23] | pIC50 (Cytochrome P450 3A4) | pIC50 (Cytochrome P450 2D6) | pIC50 (Cytochrome P450 2C9) | pIC50 (Cytochrome P450 2C19) | pIC50 (Cytochrome P450 1A2) | Activity [24] | further results
CCn1c(CNC(=O)c2nc(Cl)cnc2N)[n+](CC)c2ccc(C(=O)N(C)CCN(C)C)cc21 | < 0.21 | > 2 | 0.2 | < 0.02 | < 0.2 | < 0.23 | < 0.23 | 0.2 | 0.2 | 84 | 18 | < 3.10 | < 3.10 | < 3.10 | < 4.30 | < 4.30 | < 4.30 | < 4.30 | < 4.30 | Non-Toxic | pIC50 [1]: 8.21; inhibition (M1 cell): 81%; inhibition in vivo at 0.003 mg/kg (Lung [5]): 33%; inhibition [6]: 44%; inhibition in vivo at 0.0003 mg/kg (Lung [7]): 27%; Drug uptake [16]: 55%; Activity (Rattus norvegicus [17]): inactive; ED50 (Rattus norvegicus [18]): 0.1 µg/kg; ED70 (Rattus norvegicus [18]): 0.13 µg/kg; Activity (Rattus norvegicus [19]): <25%; Efficacy (Rattus norvegicus [20]): 39%; Activity [25]: Non-Toxic; Activity [26]: Non-Toxic; Activity [27]: Non-Toxic; Activity [28]: Non-Toxic
CCn1c(CNC(=O)c2nc(Cl)cnc2N)[n+](CC)c2ccc(OCC(=O)NCCOCP(C)(C)=O)cc21 | 0.37 | > 5 | 0.1 | < 0.05 | 0.6 | < 0.23 | < 0.23 | 0.28 | 0.17 | 79 | 18 | < 3.10 | < 3.10 | < 3.10 | < 4.30 | < 4.30 | < 4.30 | < 4.30 | < 4.30 | Non-Toxic | Drug uptake [29]: 26%; bioavailability [30]: < 5%; Activity [25]: Non-Toxic; Activity [26]: Non-Toxic; Activity [27]: Non-Toxic; Activity [28]: Non-Toxic; inhibition at 10 µM (CFTR): < 50%; inhibition at 10 µM (CaV3.1): < 50%; inhibition at 10 µM (CaV3.2): < 50%; inhibition at 10 µM (BK channel): < 50%
